# Experimental data from patent EP0279357A2, “Composition for the treatment of coronary diseases or organic brain syndrome” (BOEHRINGER INGELHEIM KG, priority 1987, dated 1988).
# Assays:
# [1] = test system: myocardiale Radiocalciumaufnahme; assay: Inhibition of isoprenaline-induced myocardial radiocalcium uptake in conscious rats after oral dosing (method of Arndts); type: in vivo, Ratten; settings: Rattus norvegicus, oral dose that inhibits by 50 % the myocardial radiocalcium uptake caused by 30 mg/kg s.c. Isoprenalin, read-out: H50
# Source text: 1. Bekanntlich ist der myocardiale Ca²⁺ Gehalt ein Maß für die hypoxische bzw. die durch toxische Catecholamindosen hervorgerufene Herzschädigung (Higgins et al. Mol. Cell. Cardiol. 10. 427-438, 1984; Nakanishi et. al., Am. J. Physiol. 242, 437-449, 1982; Fleckenstein A., Vorträge der Erlanger Physiol. Tagung 1970, Edit. Keidel, Springer Verl. Berlin; Heidelberg, New York, 1971). Umgekehrt ist die Inhibition der hypoxischen oder Isoprenalin-bedingten myocardialen Calciumaufnahme ein Maß für die cardioprotektive Effektivität von Calciumantagonisten (Fleckenstein s.o), von Calmodulinhibitoren (Higgins s.o.) und anderen Pharmaka, z.B. Betaadrenolytika (Arndts, Arzneimittelforschung, 25, 1279-1284 (1975)). Die cardioprotektive Wirkung wurde an wachen Ratten nach oraler Wirkstoffgabe anhand der von Arndts (s.o.) beschriebenen Methoden festgestellt und die Wirkungsstärke der Testsubstanzen als H₅₀-Werte angegeben; dieser Wert entspricht der Dosis, die die durch eine Gabe von 30 mg/kg s.c. Isoprenalin bedingte myocardiale Radiocalciumaufnahme bis 50 % hemmt. Hier erwiesen sich die vorliegenden Verbindungen als wirksamer als die bekannten Handelsprodukte Captopril und Enalapril. Die Ergebnisse sind in Tabelle I dargestellt.
# [2] = test system: ischämischen Langendorff-Herzen; assay: Ischaemic Langendorff heart, recovery of regular contractions after reperfusion (in vitro or ex vivo); settings: ischaemic Langendorff hearts
# Source text: Hieraus läßt sich eine protektive Wirksamkeit der Substanzen auf Herzschädigungen während Hypoxie oder Ischämie ableiten.
# [3] = test system: Ca²⁺-Efflux an der Kaninchen-Aorta; assay: Stimulated Ca2+ efflux in rabbit aorta (method of van Breemen et al. / Casteels and Droogman); type: cell-based; settings: Oryctolagus cuniculus, read-out: Hemmung des durch 10⁻⁵ mol/l Noradrenalin stimulierten Ca²⁺ Efflux
# Source text: (§1) 2. In einer weiteren Testanordnung wurde die Wirkung und der Mechanismus der Verbindungen auf die Ca²⁺-Fluxe wie folgt nachgewiesen: Die Bestimmung des Ca²⁺-Efflux wurde nach der Methode von C. van Breemen, P. Aarsonson, R. Loutzenheiser und K. Meisheri (Chest 78, 157S-165S (1980) und von R. Casteels und G.Droogman (J.Physiol. 317, 263-276 (1981)) durchgeführt. Mit dem Ca²⁺-Efflux wird die intrazelluläre Ca²⁺-Freisetzung auf eine Rezeptorstimulation gemessen. Damit ist eine quantitative Beurteilung des Ausmaßes der Rezeptor-vermittelten Wirkung möglich.
# (§2) Untersuchungen zum Ca²⁺-Efflux an der Kaninchen-Aorta ergaben, daß die Verbindungen der Formel I den durch Kaliumionen und Noradrenalin stimulierten Ca²⁺-Efflux hemmen.
# (§3) Versuche mit der oben genannten Verbindung A (N-[N-(1-L-Ethoxycarbonyl-3-phenylpropyl)-L-alanyl]4,5,6,7-tetrahydro-thieno[2,3-c]pyridin-7-L-carbonsäure ergaben: Die Hemmung des durch 10⁻⁵ mol/l Noradrenalin stimulierten Ca²⁺ Efflux liegt bei 25, 24 und 30 % mit der oben angeführten Verbindung A in den entsprechenden Konzentrationen 10⁻⁶, 10⁻⁵ und 10⁻⁴ mol/l. Das weist auf eine grundsätzlich nur partielle Hemmung hin. Der Ca²⁺-Influx durch K⁺ Depolarisation wird zu 38% gehemmt (10⁻⁵ mol/l der Verbindung A).
# [4] = test system: Ca²⁺-Influx durch K⁺ Depolarisation; assay: Ca2+ influx by K+ depolarisation; type: cell-based, Kaninchen; settings: Oryctolagus cuniculus; compound 10⁻⁵ mol/l; read-out: Hemmung des Ca²⁺-Influx durch K⁺ Depolarisation
# Source text: as §1, §2, §3
# Mäusen (ChbI:NMRI) = assay: Scopolamine test: passive avoidance reaction in mice; type: in vivo
# Source text: Durch den cholinerg-muskarinen Antagonisten Scopolamin wird bei Mensch und Tier eine vorübergehende Störung des Überganges von Inhalten des Kurzzeitgedächtnisses in das Langzeitgedächtnis hervorgerufen. Die auch klinisch bei gesunden Probanden durch Scopolamin auslösbaren, mnestischen Störungen sind in ihrer Ausprägung den psychopathologischen Veränderungen bei Patienten mit organischem Hirnsyndrom ähnlich (Drachman & Leavitt, 1974).
# Der Scopolamin-Test wird an Gruppen von jeweils 10 männlichen, nicht nüchternen, naiven Mäusen (ChbI:NMRI; Körpergewicht 35 g) mit Hilfe einer passiven Vermeidereaktion durchgeführt. Das Testgerät besteht aus einer Skinner Box (30 cm × 26 cm × 29 cm) mit einem elektrifizierbaren Gitterboden und einer Plastikplattform (5 cm × 5 cm) an einer Seitenwand. Die Tiere werden einzeln in die Skinner Box gesetzt. Nach einer Orientierungsperiode von 30 sec werden kurze, unterbrochene Stromstöße von ca. 0,8 mA so oft an den Gitterboden der Box gelegt, bis das Tier gelernt hat, daß das Aufsuchen und Verweilen auf der Plastikplattform vor dem Stromstoß Sicherheit gewährt. Tiere, welche dies innerhalb von 120 sec nicht lernen, werden nicht weiter verwendet. Die anderen Mäuse werden unmittelbar nach Erlernen der passiven Vermeidereaktion in drei Gruppen (10 Tiere pro Gruppe) eingeteilt. Eine Gruppe erhält Scopolaminhydrobromid (0,6 mg/kg s.c.) und oral Vehikel (0,5 % Tylose); die zweite Gruppe Scopolaminhydrobromid sowie die zu testende Substanz per os in 0,5 % Tylose und die dritte Gruppe lediglich 0,5 % Tylose p.o.. Eine Stunde nach Application wird jedes Tier einzeln auf die Plattform gesetzt, um das Erinnerungsvermögen an die erlernte Vermeidereaktion zu prüfen. Das Kriterium besteht in der Bestimmung, ob die Maus während mindestens 60 sec. auf der Plattform verbleibt (Ja-Antwort) oder nicht (Nein-Antwort).
# Etwa 75% der Tiere, welche ausschließlich mit 0,5 % Tylose behandelt wurden, verbleiben bei der abschließenden Prüfung länger als 60 sec. auf der Plattform: ein Ergebnis, welches als Ausdruck des guten Erinnerungsvermögens an die erlernte Erfahrung gedeutet werden kann. Nach Gabe von Scopolamin und Tylose verbleiben durchschnittlich etwa 25 % der Tiere auf der Plattform; dies zeigt die erhebliche Beeinträchtigung des Erinnerungsvermögens nach Gabe von Scopolamin. Verbindungen der Formel I antagonisieren die Scopolaminwirkung statistisch signifikant. Zum Beispiel ist die oben genannte Verbindung A (N-[N-(1-L-Ethoxycarbonyl-3-phenylpropyl)-L-alanyl]-4,5,6,7-tetrahydro-thieno[2,3-c]-pyridin-7-L-carbonsäure) bei einer Dosis über 0,1 mg/kg p.o. (insbesondere ab 0,5 mg/kg p.o.) wirksam. In Gegensatz dazu sind Captopril bei Dosen von 10 und 30 mg/kg p.o. und Enalapril bei einer Dosis von 5 mg/kg p.o. unwirksam.
SMILES,ED50 [1] [mg/kg],Wiederauftreten regelmäßiger Kontraktionen nach Reperfusion [2],also measured
"CCOC(=O)[C@H](CCc1ccccc1)N[C@@H](C)C(=O)N1CCc2ccsc2[C@H]1C(=O)O [A, N-[N-(1-L-Ethoxycarbonyl-3-phenylpropyl)-L-alanyl]-4,5,6,7-tetrahydro-thieno[2,3-c]pyridin-7-L-carbonsäure]",0.63,zeitliche Verkürzung des Wiederauftretens regelmäßiger Kontraktionen,"inhibition at 100 µM ([3]; compound 10⁻⁴ mol/l): 30%; inhibition at 10 µM ([3]; compound 10⁻⁵ mol/l): 24%; inhibition at 1 µM ([3]; compound 10⁻⁶ mol/l): 25%; inhibition at 10 µM [4]: 38%; Antagonismus der Scopolaminwirkung (Mäusen (ChbI:NMRI); dose above 0,1 mg/kg p.o. (especially from 0,5 mg/kg p.o.)): wirksam"
"CC(CS)C(=O)N1CCC[C@@H]1C(=O)O (stereo partly drawn) [Captopril, D-2-Methyl-3-mercaptopropanoyl-L-prolin]",1.52,deutlich schwächer,Antagonismus der Scopolaminwirkung (Mäusen (ChbI:NMRI); 10 mg/kg p.o.): unwirksam; Antagonismus der Scopolaminwirkung (Mäusen (ChbI:NMRI); 30 mg/kg p.o.): unwirksam
"C[C@H](N[C@@H](CCc1ccccc1)C(=O)O)C(=O)N1Cc2nc[nH]c2C[C@H]1C(=O)O [D, N-[N-(1-L-Carboxy-3-phenylpropyl)-L-alanyl]-4,5,6,7-tetrahydro-1H-imidazo[4,5-c]pyridin-6-L-carbonsäure]",1.32,,
"C[C@H](N[C@@H](CCc1ccccc1)C(=O)O)C(=O)N1Cc2ccsc2C[C@H]1C(=O)O [E, N-[N-(1-L-Carboxy-3-phenylpropyl)-L-alanyl]-4,5,6,7-tetrahydro-thieno[3,2-c]pyridin-6-L-carbonsäure]",1.1,,
"CCOC(=O)[C@H](CCc1ccccc1)N[C@@H](C)C(=O)N1CCC[C@H]1C(=O)O [Enalapril, 1-N-[(S)-1-Ethoxycarbonyl-3-phenylpropyl]-S-alanyl-S-prolin]",1.59,deutlich schwächer,Antagonismus der Scopolaminwirkung (Mäusen (ChbI:NMRI); 5 mg/kg p.o.): unwirksam
